Assay results taken from patent US20090253669A1, “Substituted Sulfonamide Compounds” (GRUENENTHAL GmbH, priority 2008, published 2009).

Key:
[1] = biological target: T1, human B1R receptor (hB1R) (Homo sapiens, UniProt P46663); test: FLIPR Ca2+ assay on hB1R-transfected CHO K1 cells, antagonistic action; assay type: cell-based; conditions: agonist Lys-Des-Arg9-bradykinin 0.5 nM, % of maximum achievable inhibition; for inhibition at 10 µM: CHO-K1, 10 μM test substance, read-out: hB1R [10 μM] % inhibition
T1 construct: host or cells: CHO K1 cells
T1 sequence (P46663 1-353): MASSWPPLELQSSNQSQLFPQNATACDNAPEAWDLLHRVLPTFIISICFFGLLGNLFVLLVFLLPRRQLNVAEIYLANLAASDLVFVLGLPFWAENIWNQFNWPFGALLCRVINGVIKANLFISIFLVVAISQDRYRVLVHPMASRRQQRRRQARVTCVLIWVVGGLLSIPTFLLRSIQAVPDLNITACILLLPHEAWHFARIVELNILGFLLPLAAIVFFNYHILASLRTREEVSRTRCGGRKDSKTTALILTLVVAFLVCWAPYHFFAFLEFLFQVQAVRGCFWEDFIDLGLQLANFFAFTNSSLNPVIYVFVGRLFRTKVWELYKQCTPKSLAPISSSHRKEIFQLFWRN

[2] = biological target: T2, B1R receptor of the rat (rB1R) (Rattus norvegicus, UniProt P97583); test: FLIPR Ca2+ assay on rB1R-transfected CHO K1 cells, antagonistic action; assay type: cell-based; conditions: agonist Des-Arg9-bradykinin 100 nM, % of maximum achievable inhibition; for inhibition at 10 µM: CHO-K1, 10 μM test substance, read-out: rB1R [10 μM] % inhibition
T2 construct: host or cells: CHO K1 cells
T2 sequence (P97583 1-337): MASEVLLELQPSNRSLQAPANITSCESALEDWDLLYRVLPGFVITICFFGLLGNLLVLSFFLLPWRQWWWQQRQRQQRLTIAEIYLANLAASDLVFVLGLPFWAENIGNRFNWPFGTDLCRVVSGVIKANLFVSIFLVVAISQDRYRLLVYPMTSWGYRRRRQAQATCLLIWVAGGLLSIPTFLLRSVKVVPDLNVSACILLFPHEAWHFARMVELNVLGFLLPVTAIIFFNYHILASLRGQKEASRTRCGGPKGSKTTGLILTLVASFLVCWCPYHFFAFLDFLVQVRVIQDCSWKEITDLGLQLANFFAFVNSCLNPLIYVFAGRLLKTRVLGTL

Row | SMILES | inhibition at 10 µM [1] | inhibition at 10 µM [2] | hB1R [10 μM] % inhibition ([1]; 10 μM test substance) | rB1R [10 μM] % inhibition ([2]; 10 μM test substance)
1 | Cc1cc(C)c(S(=O)(=O)N2CCC(OCC(=O)NC3CCC(CCc4ccccc4)(N(C)C)CC3)C2)c(C)c1 (centres unmarked) [Compound 29, N-(4-(dimethylamino)-4-phenethylcyclohexyl)-2-(1-(mesitylsulfonyl)pyrrolidin-3-yloxy)acetamide] | 61% | 46% | – | –
2 | Cc1ccccc1CC1(N(C)C)CCC(NC(=O)COCCN(C)S(=O)(=O)c2ccc(Cl)cc2Cl)CC1 (centres unmarked) [Compound 30, 2-(2-(2,4-dichloro-N-methylphenylsulfonamido)ethoxy)-N-(4-(dimethylamino)-4-(2-methylbenzyl)cyclohexyl)acetamide] | 63% | 39% | – | –
3 | COc1cc(C)c(S(=O)(=O)N2CCCCC2COCC(=O)N(C)CCCC2CCC(c3ccccc3)(N3CCCC3)CC2)c(C)c1 (centres unmarked) [Compound 32, 2-((1-(4-methoxy-2,6-dimethylphenylsulfonyl)piperidin-2-yl)methoxy)-N-methyl-N-(3-(4-phenyl-4-(pyrrolidin-1-yl)cyclohexyl)propyl)acetamide] | 104% | 102% | – | –
4 | CN(CC1CCC(c2ccccc2)(N2CCCC2)CC1)C(=O)CC1CCCCN1S(=O)(=O)c1cccc(C(F)(F)F)c1 (centres unmarked) [Compound 33, N-methyl-N-((4-phenyl-4-(pyrrolidin-1-yl)cyclohexyl)methyl)-2-(1-(3-(trifluoromethyl)phenylsulfonyl)piperidin-2-yl)acetamide] | 94% | 101% | – | –
5 | COc1cc(C)c(S(=O)(=O)N(C)CCOCC(=O)N(C)CCC2CCC(c3ccccc3)(N3CCCC3)CC2)c(C)c1 (centres unmarked) [Compound 34, 2-(2-(4-methoxy-N,2,6-trimethylphenylsulfonamido)ethoxy)-N-methyl-N-(2-(4-phenyl-4-(pyrrolidin-1-yl)cyclohexyl)ethyl)acetamide] | 104% | 101% | – | –
6 | COc1cc(C)c(S(=O)(=O)N(C)CCOCC(=O)N(C)CC2CCC(c3ccccc3)(N3CCCC3)CC2)c(C)c1 (centres unmarked) [Compound 35, 2-(2-(4-methoxy-N,2,6-trimethylphenylsulfonamido)ethoxy)-N-methyl-N-((4-phenyl-4-(pyrrolidin-1-yl)cyclohexyl)methyl)acetamide] | 102% | 101% | – | –
7 | CN(C)C1(Cc2ccccc2)CCN(C(=O)COCC2CCc3ccccc3N2S(=O)(=O)c2ccc(Cl)c(Cl)c2)CC1 (centres unmarked) [Compound 36, 1-(4-benzyl-4-(dimethylamino)piperidin-1-yl)-2-((1-(3,4-dichlorophenylsulfonyl)-1,2,3,4-tetrahydroquinolin-2-yl)methoxy)ethanone] | 101% | 101% | – | –
8 | CN(CCCC1CCC(c2ccccc2)(N2CCCC2)CC1)C(=O)CC1CCCCN1S(=O)(=O)c1cccc(C(F)(F)F)c1 (centres unmarked) [Compound 37, N-methyl-N-(3-(4-phenyl-4-(pyrrolidin-1-yl)cyclohexyl)propyl)-2-(1-(3-(trifluoromethyl)phenylsulfonyl)piperidin-2-yl)acetamide] | 103% | 101% | – | –
9 | CN(CC1CCC(CCc2ccccc2)(N2CCCC2)CC1)C(=O)CC1CCCCN1S(=O)(=O)c1cccc(C(F)(F)F)c1 (centres unmarked) [Compound 38, N-methyl-N-((4-phenethyl-4-(pyrrolidin-1-yl)cyclohexyl)methyl)-2-(1-(3-(trifluoromethyl)phenylsulfonyl)piperidin-2-yl)acetamide] | 98% | 101% | – | –
10 | COc1cc(C)c(S(=O)(=O)N(C)CCOCC(=O)N(C)CCC2CCC(Cc3ccccc3)(N3CCCC3)CC2)c(C)c1 (centres unmarked) [Compound 39, N-(2-(4-benzyl-4-(pyrrolidin-1-yl)cyclohexyl)ethyl)-2-(2-(4-methoxy-N,2,6-trimethylphenylsulfonamido)ethoxy)-N-methylacetamide] | 105% | 101% | – | –
11 | CN(CCC1CCC(c2ccccc2)(N2CCCC2)CC1)C(=O)CC(NS(=O)(=O)c1ccc2ccccc2c1)c1ccccc1 (centres unmarked) [Compound 40, N-methyl-3-(naphthalene-2-sulfonamido)-3-phenyl-N-(2-(4-phenyl-4-(pyrrolidin-1-yl)cyclohexyl)ethyl)propanamide] | 103% | 101% | – | –
12 | COc1cc(C)c(S(=O)(=O)N(C)CCOCC(=O)N2CCC(c3ccccc3)(N3CCN(C)CC3)CC2)c(C)c1 [Compound 41, 4-methoxy-N,2,6-trimethyl-N-(2-(2-(4-(4-methylpiperazin-1-yl)-4-phenylpiperidin-1-yl)-2-oxoethoxy)ethyl)benzenesulfonamide] | 103% | 101% | – | –
13 | COc1cc(C)c(S(=O)(=O)N(C)CCOCC(=O)N2CCC(c3ccc(F)cc3)(N3CCN(C)CC3)CC2)c(C)c1 [Compound 42, N-(2-(2-(4-(4-fluorophenyl)-4-(4-methylpiperazin-1-yl)piperidin-1-yl)-2-oxoethoxy)ethyl)-4-methoxy-N,2,6-trimethylbenzenesulfonamide] | 105% | 101% | – | –
14 | COc1cc(C)c(S(=O)(=O)N(C)CCOCC(=O)N2CCC(c3cccc(F)c3)(N3CCN(C)CC3)CC2)c(C)c1 [Compound 44, N-(2-(2-(4-(3-fluorophenyl)-4-(4-methylpiperazin-1-yl)piperidin-1-yl)-2-oxoethoxy)ethyl)-4-methoxy-N,2,6-trimethylbenzenesulfonamide] | – | – | 102% | 101%
15 | COc1cc(C)c(S(=O)(=O)N(C)CCOCC(=O)N(C)CC2CCC(Cc3ccccc3)(N3CCCC3)CC2)c(C)c1 (centres unmarked) [Compound 45, N-((4-benzyl-4-(pyrrolidin-1-yl)cyclohexyl)methyl)-2-(2-(4-methoxy-N,2,6-trimethylphenylsulfonamido)ethoxy)-N-methylacetamide] | 104% | 100% | – | –
16 | COc1cc(C)c(S(=O)(=O)N2CCCCC2COCC(=O)N(C)CCC2CCC(CCc3ccccc3)(N3CCCC3)CC2)c(C)c1 (centres unmarked) [Compound 46, 2-((1-(4-methoxy-2,6-dimethylphenylsulfonyl)piperidin-2-yl)methoxy)-N-methyl-N-(2-(4-phenethyl-4-(pyrrolidin-1-yl)cyclohexyl)ethyl)acetamide] | 104% | 100% | – | –
17 | COc1cc(C)c(S(=O)(=O)N(C)CCOCC(=O)N(C)CC2CCC(CCc3ccccc3)(N3CCCC3)CC2)c(C)c1 (centres unmarked) [Compound 47, 2-(2-(4-methoxy-N,2,6-trimethylphenylsulfonamido)ethoxy)-N-methyl-N-((4-phenethyl-4-(pyrrolidin-1-yl)cyclohexyl)methyl)acetamide] | 102% | 100% | – | –
18 | COc1cc(C)c(S(=O)(=O)N(C)CCOCC(=O)N2CCC(CCc3ccccc3)(N(C)C)CC2)c(C)c1 [Compound 48, N-(2-(2-(4-(dimethylamino)-4-phenethylpiperidin-1-yl)-2-oxoethoxy)ethyl)-4-methoxy-N,2,6-trimethylbenzenesulfonamide] | 102% | 100% | – | –
19 | COc1cc(C)c(S(=O)(=O)N2CCCCC2COCC(=O)N2CCC(c3ccccc3)(N3CCN(C)CC3)CC2)c(C)c1 (centres unmarked) [Compound 49, 2-((1-(4-methoxy-2,6-dimethylphenylsulfonyl)piperidin-2-yl)methoxy)-1-(4-(4-methylpiperazin-1-yl)-4-phenylpiperidin-1-yl)ethanone] | 103% | 100% | – | –
20 | COc1cc(C)c(S(=O)(=O)N2CCCCC2COCC(=O)N2CCC(CCc3ccccc3)(N(C)C)CC2)c(C)c1 (centres unmarked) [Compound 50, 1-(4-(dimethylamino)-4-phenethylpiperidin-1-yl)-2-((1-(4-methoxy-2,6-dimethylphenylsulfonyl)piperidin-2-yl)methoxy)ethanone] | 102% | 100% | – | –
21 | COc1cc(C)c(S(=O)(=O)N2CCCCC2COCC(=O)N(C)CC2CCC(CCc3ccccc3)(N3CCCC3)CC2)c(C)c1 (centres unmarked) [Compound 51, 2-((1-(4-methoxy-2,6-dimethylphenylsulfonyl)piperidin-2-yl)methoxy)-N-methyl-N-((4-phenethyl-4-(pyrrolidin-1-yl)cyclohexyl)methyl)acetamide] | 102% | 100% | – | –
22 | COc1cc(C)c(S(=O)(=O)N(C)CCOCC(=O)N(C)CCC2CCC(CCc3ccccc3)(N(C)C)CC2)c(C)c1 (centres unmarked) [Compound 52, N-(2-(4-(dimethylamino)-4-phenethylcyclohexyl)ethyl)-2-(2-(4-methoxy-N,2,6-trimethylphenylsulfonamido)ethoxy)-N-methylacetamide] | 104% | 100% | – | –
